Results published in ChEMBL document CHEMBL1201862, “PubChem BioAssay data set” (2004).
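In this assay, cells in 96-well plates receive the compound at five concentrations for 48 hours. Endpoints are linearly interpolated between the surrounding concentrations. The concentration for 50% growth inhibition is given as GI50.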 Activity calls are given as the source filed them. Rule as the data show it: active = GI50 up to about 1.1 µM and inactive = higher.

Legend:
Experiment in all cases: DTP human tumour cell line panel, 48 h
HOP-62 = test system: HOP-62
Malme-3M = test system: Malme-3M
SK-MEL-28 = test system: SK-MEL-28
U-251 = test system: U-251
MOLT-4 = test system: MOLT-4
SK-OV-3 = test system: SK-OV-3
SNB-78 = test system: SNB-78
DMS-114 = test system: DMS-114
NCI-H226 = test system: NCI-H226
HCC 2998 = test system: HCC 2998
UACC-257 = test system: UACC-257
SW-620 = test system: SW-620
DLD-1 = test system: DLD-1
SR = test system: SR
IGROV-1 = test system: IGROV-1
OVCAR-8 = test system: OVCAR-8
CCRF-CEM = test system: CCRF-CEM
COLO 205 = test system: COLO 205
TK-10 = test system: TK-10
EKVX = test system: EKVX
LOX IMVI = test system: LOX IMVI
OVCAR-5 = test system: OVCAR-5
HCT-15 = test system: HCT-15
UACC-62 = test system: UACC-62
RPMI-8226 = test system: RPMI-8226
OVCAR-3 = test system: OVCAR-3
HOP-18 = test system: HOP-18
LXFL 529 = test system: LXFL 529
KM-20L2 = test system: KM-20L2
SF-268 = test system: SF-268
SK-MEL-5 = test system: SK-MEL-5
ACHN = test system: ACHN
HT-29 = test system: HT-29
HL-60 = test system: HL-60
OVCAR-4 = test system: OVCAR-4
HCT-116 = test system: HCT-116
SF-295 = test system: SF-295
NCI-H460 = test system: NCI-H460
SN12C = test system: SN12C
K562 = test system: K562
A498 = test system: A498
DMS-273 = test system: DMS-273
M14 = test system: M14
NCI-H522 = test system: NCI-H522
KM12 = test system: KM12
SNB-19 = test system: SNB-19
UO-31 = test system: UO-31
NCI-H23 = test system: NCI-H23
RXF 393 = test system: RXF 393
M19-MEL = test system: M19-MEL
HOP-92 = test system: HOP-92
NCI/ADR-RES = test system: NCI/ADR-RES
MCF7 = test system: MCF7
A549 = test system: A549
SNB-75 = test system: SNB-75
SK-MEL-2 = test system: SK-MEL-2
XF498 = test system: XF498
SF-539 = test system: SF-539
786-0 = test system: 786-0
CAKI-1 = test system: CAKI-1

Cc1ccc(-c2cc(-c3ccco3)c(C#N)c(=O)n2C2OC(CO)C(O)C(O)C2O)cc1 (centres undefined)
GI50 (HOP-62): 49.5 µM (inactive)
GI50 (Malme-3M): 41 µM (inactive)
GI50 (SK-MEL-28): 37 µM (inactive)
GI50 (U-251): 33.3 µM (inactive)
GI50 (MOLT-4): > 100 µM (inactive)
GI50 (SK-OV-3): 28.7 µM (inactive)
GI50 (SNB-78): 65.5 µM (inactive)
GI50 (DMS-114): > 100 µM (inactive)
GI50 (NCI-H226): 58.6 µM (inactive)
GI50 (HCC 2998): > 100 µM (inactive)
GI50 (UACC-257): 58.5 µM (inactive)
GI50 (SW-620): 93.8 µM (inactive)
GI50 (DLD-1): 67.6 µM (inactive)
GI50 (SR): > 100 µM (inactive)
GI50 (IGROV-1): 49.1 µM (inactive)
GI50 (OVCAR-8): 32.2 µM (inactive)
GI50 (CCRF-CEM): 66.2 µM (inactive)
GI50 (COLO 205): > 100 µM (inactive)
GI50 (TK-10): 45.3 µM (inactive)
GI50 (EKVX): > 100 µM (inactive)
GI50 (LOX IMVI): 68.1 µM (inactive)
GI50 (OVCAR-5): > 100 µM (inactive)
GI50 (HCT-15): 83.6 µM
GI50 (UACC-62): 42.3 µM (inactive)
GI50 (RPMI-8226): 73.3 µM (inactive)
GI50 (OVCAR-3): 45.6 µM (inactive)
GI50 (HOP-18): > 100 µM (inactive)
GI50 (LXFL 529): 61.9 µM (inactive)
GI50 (KM-20L2): > 100 µM (inactive)
GI50 (SF-268): 53 µM (inactive)
GI50 (SK-MEL-5): 22 µM (inactive)
GI50 (ACHN): 42.9 µM (inactive)
GI50 (HT-29): > 100 µM (inactive)
GI50 (HL-60): > 100 µM (inactive)
GI50 (OVCAR-4): 35.7 µM (inactive)
GI50 (HCT-116): 94.8 µM (inactive)
GI50 (SF-295): 33.6 µM (inactive)
GI50 (NCI-H460): 37.1 µM (inactive)
GI50 (SN12C): 46.3 µM (inactive)
GI50 (K562): > 100 µM (inactive)
GI50 (A498): 21.6 µM (inactive)
GI50 (DMS-273): 50.7 µM (inactive)
GI50 (M14): 67.5 µM (inactive)
GI50 (NCI-H522): 44.5 µM (inactive)
GI50 (KM12): 84.5 µM (inactive)
GI50 (SNB-19): 68.2 µM (inactive)
GI50 (UO-31): 59.6 µM (inactive)
GI50 (NCI-H23): 37.1 µM (inactive)
GI50 (RXF 393): 48.3 µM (inactive)

O=S(=O)(O)c1ccc(/N=N\c2ccc(/N=N/c3ccc(/C=C/c4ccc(/N=[N+](\[O-])c5ccc(/C=C/c6ccc(/N=N/c7ccc(/N=N/c8ccc(S(=O)(=O)O)cc8)c8ccccc78)cc6S(=O)(=O)O)c(S(=O)(=O)O)c5)cc4S(=O)(=O)O)c(S(=O)(=O)O)c3)c3ccccc23)cc1
GI50 (M19-MEL): > 100 µM (inactive)
GI50 (HOP-62): > 100 µM (inactive)
GI50 (Malme-3M): > 100 µM (inactive)
GI50 (SK-MEL-28): > 100 µM (inactive)
GI50 (U-251): > 91.4 µM (inactive)
GI50 (HOP-92): > 81.1 µM (inactive)
GI50 (MOLT-4): > 100 µM (inactive)
GI50 (SK-OV-3): > 100 µM (inactive)
GI50 (SNB-78): > 100 µM (inactive)
GI50 (DMS-114): > 100 µM (inactive)
GI50 (NCI-H226): > 83.4 µM (inactive)
GI50 (HCC 2998): > 100 µM (inactive)
GI50 (UACC-257): > 100 µM (inactive)
GI50 (SW-620): > 100 µM (inactive)
GI50 (DLD-1): > 100 µM (inactive)
GI50 (NCI/ADR-RES): > 100 µM (inactive)
GI50 (MCF7): > 100 µM (inactive)
GI50 (IGROV-1): 32.3 µM (inactive)
GI50 (OVCAR-8): > 100 µM (inactive)
GI50 (CCRF-CEM): > 100 µM (inactive)
GI50 (COLO 205): > 100 µM (inactive)
GI50 (EKVX): > 100 µM (inactive)
GI50 (A549): > 89.1 µM (inactive)
GI50 (LOX IMVI): > 100 µM (inactive)
GI50 (OVCAR-5): > 100 µM (inactive)
GI50 (HCT-15): > 100 µM
GI50 (UACC-62): > 100 µM (inactive)
GI50 (SNB-75): 50.7 µM (inactive)
GI50 (RPMI-8226): > 100 µM (inactive)
GI50 (OVCAR-3): 99.1 µM (inactive)
GI50 (HOP-18): 30.5 µM (inactive)
GI50 (KM-20L2): > 100 µM (inactive)
GI50 (SF-268): > 100 µM (inactive)
GI50 (SK-MEL-5): > 100 µM (inactive)
GI50 (HT-29): > 100 µM (inactive)
GI50 (HL-60): > 100 µM (inactive)
GI50 (OVCAR-4): > 100 µM (inactive)
GI50 (SK-MEL-2): > 100 µM (inactive)
GI50 (XF498): > 66.8 µM (inactive)
GI50 (HCT-116): > 100 µM (inactive)
GI50 (SF-295): > 74.6 µM (inactive)
GI50 (NCI-H460): > 100 µM (inactive)
GI50 (SN12C): > 100 µM (inactive)
GI50 (K562): > 100 µM (inactive)
GI50 (A498): > 100 µM (inactive)
GI50 (DMS-273): > 100 µM (inactive)
GI50 (NCI-H522): 54.5 µM (inactive)
GI50 (KM12): > 100 µM (inactive)
GI50 (SNB-19): > 10 µM (inactive)
GI50 (UO-31): 57.4 µM (inactive)
GI50 (NCI-H23): > 100 µM (inactive)
GI50 (RXF 393): > 100 µM (inactive)
GI50 (SF-539): > 84.7 µM (inactive)

COc1cc(C2C(C(=O)Nc3ccc(Cl)c(Cl)c3)=C(C)NC(C)=C2C(=O)Nc2ccc(Cl)c(Cl)c2)ccc1O
GI50 (M19-MEL): 14.5 µM (inactive)
GI50 (786-0): 12.7 µM (inactive)
GI50 (HOP-62): 11 µM (inactive)
GI50 (Malme-3M): 12.6 µM (inactive)
GI50 (SK-MEL-28): 13.9 µM (inactive)
GI50 (U-251): 13.9 µM (inactive)
GI50 (HOP-92): 2.6 µM (inactive)
GI50 (MOLT-4): 4.31 µM (inactive)
GI50 (SK-OV-3): 14.8 µM (inactive)
GI50 (SNB-78): 14.9 µM (inactive)
GI50 (DMS-114): 6.49 µM (inactive)
GI50 (NCI-H226): 16.7 µM (inactive)
GI50 (HCC 2998): 11.4 µM (inactive)
GI50 (UACC-257): 13.8 µM (inactive)
GI50 (SW-620): 12.3 µM (inactive)
GI50 (DLD-1): 10.6 µM (inactive)
GI50 (IGROV-1): 14.2 µM (inactive)
GI50 (OVCAR-8): 13.9 µM (inactive)
GI50 (CCRF-CEM): 3.26 µM (inactive)
GI50 (COLO 205): 13.3 µM (inactive)
GI50 (TK-10): 19.1 µM (inactive)
GI50 (EKVX): 10.3 µM (inactive)
GI50 (A549): 12.8 µM (inactive)
GI50 (LOX IMVI): 11.4 µM (inactive)
GI50 (OVCAR-5): 19.4 µM (inactive)
GI50 (CAKI-1): 14 µM (inactive)
GI50 (SNB-75): 10.3 µM (inactive)
GI50 (RPMI-8226): 3.89 µM (inactive)
GI50 (OVCAR-3): 9.82 µM (inactive)
GI50 (LXFL 529): 9.27 µM (inactive)
GI50 (KM-20L2): 19.8 µM (inactive)
GI50 (SF-268): 11.7 µM (inactive)
GI50 (SK-MEL-5): 12.2 µM (inactive)
GI50 (ACHN): 10.8 µM (inactive)
GI50 (HT-29): 15.1 µM (inactive)
GI50 (HL-60): 4.38 µM (inactive)
GI50 (OVCAR-4): 5.3 µM (inactive)
GI50 (SK-MEL-2): 8.17 µM (inactive)
GI50 (XF498): 17.4 µM (inactive)
GI50 (SF-295): 18.4 µM (inactive)
GI50 (NCI-H460): 12.8 µM (inactive)
GI50 (SN12C): 12.3 µM (inactive)
GI50 (K562): 6.68 µM (inactive)
GI50 (A498): 12.2 µM (inactive)
GI50 (M14): 12.6 µM (inactive)
GI50 (NCI-H522): 3.65 µM (inactive)
GI50 (KM12): 11.7 µM (inactive)
GI50 (SNB-19): 12.3 µM (inactive)
GI50 (UO-31): 12 µM (inactive)
GI50 (NCI-H23): 12.5 µM (inactive)
GI50 (RXF 393): 2.64 µM (inactive)
GI50 (SF-539): 10.2 µM (inactive)
